Assay results reported in a melting point compilation (Tetko et al.; mined from patent text by program, amines drawn as free bases though some values may be those of a salt).

First: CCOC(=O)c1sc(NC(=O)c2ccc(C#N)cc2)nc1C
Second: CCOC(=O)c1ccc(C(=O)CBr)cc1
The melting point of the first is higher: 293 to 295 °C for the first, 67 to 68.5 °C for the second.

Compared with Cc1cc(=O)[nH]nc1-c1cccc(C(F)(F)F)c1, O=c1ccc(-c2ccccc2Cl)n[nH]1 is lower in melting point: 224 to 227 °C for the first, 214 to 216 °C for the second.

Compared with O=Cc1ccc2cc(O)ccc2c1, CSc1cc2ccccc2cc1C=O is lower in melting point: 154 to 156 °C for the first, 53.5 to 54.5 °C for the second.

First: CC(C)(C)C(=O)COc1nn(CC#N)c(-c2ccc(S(C)(=O)=O)cc2)c1-c1ccc(F)cc1
Second: NC(=O)c1nc(-c2ccc(Oc3ccc(F)cc3)c(F)c2)cs1
The melting point of the first is lower: 156 to 159 °C for the first, 183 °C for the second.

First: Oc1ccc(N2CCSCC2)cc1
Second: COc1ccc(N2CCN(n3ccnc3SC)CC2)cc1
The melting point of the first is higher: 156 to 158 °C for the first, 140 °C for the second.

Going from CS(=O)(=O)Cc1cc(Br)ccc1C(=O)c1cnoc1C1CC1 to Cc1ccc(-c2ccccc2)cc1Cn1c(C2CC2)nn(C)c1=O, the melting point falls from 154 °C to 102 °C.

Compared with Cc1ccc(C2c3c(C)c(N4CCN(c5ccc([N+](=O)[O-])cc5)CC4)c(C)c(C)c3OC2(C)C)cc1 (stereo not drawn), Cc1nc2c(-c3cccc(N4CCN(CCO)CC4)c3)cnn2c(N)c1-c1ccc(F)cc1 is higher in melting point: 203 to 205 °C for the first, 209 to 212 °C for the second.

First: COC(=O)CN1CCN(C)c2cc(Nc3ncc(Cl)c(Nc4ccccc4NS(C)(=O)=O)n3)ccc2C1
Second: CNC(=O)[C@@H]1CCC[C@@H]1Nc1nc(Nc2cc3c(cc2OC)CCN(CC(=O)N(C)C)CC3)ncc1Cl (relative stereo)
The melting point of the first is lower: 106 to 124 °C for the first, 240 °C for the second.

Compared with CNc1nc(OC(C)C)ccc1[N+](=O)[O-], CCOC(=O)C(=O)Nc1cc(OC)ccc1[N+](=O)[O-] is higher in melting point: 75 to 76 °C for the first, 158 °C for the second.

Compared with CCCCC(CC(=O)Nc1cc(C(N)=O)ccc1C(C)(C)C)c1ccc(OCCCS(=O)(=O)CCC)cc1OC (stereo not drawn), CCCC[C@H](NC(=O)[C@H](CCC(=O)OC(C)(C)C)NC(=O)OCc1ccccc1)C(=O)CSCc1ccco1 is lower in melting point: 108 to 128 °C for the first, 78 to 79 °C for the second.

First: Nn1cc(C(=O)O)c(=O)c2cc3c(cc21)OCO3
Second: CC(=O)Nc1cc(OCc2ccc3c(c2)OCO3)c(C(=O)CCCCCl)cc1Cl
The melting point of the first is higher: 309 to 313 °C for the first, 108 to 110 °C for the second.

First: Cc1ccc(Cn2ccc(OCc3ccccc3)cc2=O)cc1
Second: Nc1ccc(CCC(=O)c2ccccc2)cc1
The melting point of the first is higher: 143 °C for the first, 76 to 78 °C for the second.

Compared with CCCC1(CCC)c2ccccc2-c2cc3c(cc21)OCN3c1c(O)ccc2oc3ccccc3c12, CCCCCc1c(-c2ccc3c(Br)c(OCC(=O)O)ccc3c2)oc2ccccc12 is lower in melting point: 304 to 305 °C for the first, 159 to 161 °C for the second.

First: Cn1cc(CCN2CCC3(CC2)CNC(=O)O3)c2ccccc21
Second: Cn1cc(C2=C(c3c4n(c5ccccc35)CCC4)C(=O)NC2=O)c2ccccc21
The melting point of the first is lower: 158 to 161 °C for the first, 260 to 270 °C for the second.

Compared with OC(c1ccc(Cl)cc1)c1cccc(Br)c1 (stereo not drawn), COc1cc(N)c2nc(OCc3ccc(Cl)cc3)ccc2c1 is higher in melting point: 67 to 68 °C for the first, 124 to 125 °C for the second.

Compared with CN(C)C=NS(=O)(=O)c1c(C(F)(F)F)nc2ccc(Cl)nn12, COC(=O)c1ccc(C(F)(F)F)nc1S(=O)(=O)NC(C)(C)C is lower in melting point: 204 to 205 °C for the first, 76 to 83 °C for the second.

Compared with Cc1ccccc1CNc1cc(C(=O)N(C)C)cc2c1nc(C)n2C, COc1ccc2nc3ccc(C(=O)N(C)C)cn3c(=O)c2c1 is higher in melting point: 158 to 159 °C for the first, 190 to 196 °C for the second.

First: COCCOc1ccc(-c2cncc(C#N)c2Nc2ccc3[nH]ccc3c2C)cc1
Second: Cc1cc(-c2ccc(-c3ccc(OCC4CO4)cc3)cc2)ccc1OCC1CO1 (stereo not drawn)
The melting point of the first is higher: 208 to 210 °C for the first, 180 °C for the second.

Compared with CC1OC(Oc2ccc(C(=O)c3ccc(C#N)cc3)cc2)C(O)C(O)C1O (stereo not drawn), O=C(c1ccc(Cl)cc1)c1ccc2[nH]c(=O)cc(-c3cccc(Cl)c3)c2c1 is higher in melting point: 96 °C for the first, 235 °C for the second.

Compared with CC1SC(=O)NN=C1c1ccc2c(c1)C(C)(C)CC(=O)N2 (stereo not drawn), COc1ccc2c3c1OC1C(=O)C(C)(C)C(C)C4C(C2)N(C)CCC314 (stereo not drawn) is lower in melting point: 288 °C for the first, 246 to 248 °C for the second.

First: Nc1c(Cl)cc(S(=O)(=O)C(F)(F)F)cc1[N+](=O)[O-]
Second: CCOC(=O)C1(C(=O)OCC)CC(c2ccc(Cl)cc2[N+](=O)[O-])=CN1C(C)=O
The melting point of the first is higher: 138 to 139 °C for the first, 90 to 95 °C for the second.

First: O=C1CCC(C(=O)OCc2ccc(Cl)cc2)N1 (stereo not drawn)
Second: O=C(NCCCN1CC=C(c2ccc(Cl)cc2)CC1)C(F)(F)F
The melting point of the first is higher: 119 to 120 °C for the first, 105 to 107 °C for the second.

Compared with CC(=O)Nc1cc(C(=O)NNC(=O)c2occ(-c3ccccc3)c2-c2ccccc2)ccc1O, O=C(Nc1ccccn1)c1c(O)ccc2cc(-c3cccc(O)c3)ccc12 is lower in melting point: 233 to 235 °C for the first, 140 °C for the second.

Compared with COc1ccc(C2CCC(C(=O)O)CC2)c2c1OCO2 (stereo not drawn), COC(=O)N[C@H]1Cc2ccc(N)cc2C1 is lower in melting point: 206 to 208 °C for the first, 140 to 142 °C for the second.

Compared with O=C(O)c1ccccc1N1CCN(CC(O)COc2ccccc2)CC1 (stereo not drawn), O=CN1CCN(C[C@H](O)COc2cccc3[nH]ccc23)CC1 is lower in melting point: 235 to 237 °C for the first, 106 to 107 °C for the second.

First: O=C1c2cccc(NCCO)c2OC12CC2
Second: N=C(N)NCCCCOc1cccc2c1NC(=O)C(CC(=O)O)C2 (stereo not drawn)
The melting point of the first is lower: 74 to 77 °C for the first, 207 to 210 °C for the second.

Compared with Brc1ccc(-c2coc3c2ccc2ccccc23)cc1, COC(=O)c1ccc(NC(=O)CCc2c(C)noc2-c2ccccc2)cc1 is higher in melting point: 125 to 130 °C for the first, 140 to 141 °C for the second.

Compared with CN1C(=O)CCC2=C1CCc1c(F)cccc12, CC(C(N)=O)c1ccc2c(c1)CC(=O)c1ccccc1S2 (stereo not drawn) is higher in melting point: 137 to 138 °C for the first, 184 to 186 °C for the second.

First: CCCCCCCCCCCCCCOc1ccc(CBr)cc1CBr
Second: CCCCCCCCOC(=O)NCC1CCC(CNC(=O)OCCCCCCCC)CC1 (stereo not drawn)
The melting point of the first is lower: 62.9 °C for the first, 120 to 122 °C for the second.

Compared with CC1(C)COC(c2cc(F)c(F)c([Si](C)(C)C)c2F)=N1, Cc1cc(Cl)c(OCCO)cc1Nc1nnc2n1[C@H](c1ccc(F)cc1)COC2 is higher in melting point: 71 to 72 °C for the first, 161 to 162 °C for the second.

First: CCn1nc(C)c2c(O)c(C(=O)O)cnc21
Second: CCN(CC)C(=O)c1c(O)c(=O)cc(C)n1C
The melting point of the first is higher: 212 to 213 °C for the first, 128 to 130 °C for the second.

First: CCOC(=O)Cc1cc2c(s1)CCN(C(=O)[C@H](Cc1ccccc1)NC(=O)c1ccc(C(=N)N)cc1)C2
Second: CCOC(=O)c1c(CCCn2cncn2)nc2sc3c(c2c1-c1ccc(OC)c(OC)c1)CCN(C(=O)c1ccc(Cl)cc1)C3
The melting point of the first is higher: 173 to 175 °C for the first, 114 to 116 °C for the second.

C[C@@H](NC(=O)c1c[nH]c2ncc(-c3nn(C)c4cc(Cl)ccc34)nc12)C(=O)N1CC[C@H](F)C1 and CC(CN(C)C)OC(=O)c1ccc(NC(=O)CCn2cnc3c(=O)[nH]cnc32)cc1 (stereo not drawn) cannot be ordered by melting point: 269 to 271 °C for the first, 270 to 275 °C for the second.

CS(=O)(=O)N(c1ccc(C(=O)NC2CCN(C3CCCCC3)C2)cc1)S(C)(=O)=O (stereo not drawn) and CN(C)c1ccc(C(=O)N2CCC(C(c3ccccc3)c3ccccc3)CC2)cc1 cannot be ordered by melting point: 176 to 178 °C for the first, 177 to 179 °C for the second.

First: CCC(=CCn1oc(=O)[nH]c1=O)c1ccc2c(Cc3ccccc3)c(CC)oc2c1
Second: CCOC(=O)c1c(-c2ccncc2)[nH]c(-c2ccccc2)c1C
The melting point of the first is lower: 118 to 120 °C for the first, 179 to 181 °C for the second.

First: CC(C)c1nc(CCl)n(C)c1Sc1cc(Cl)cc(Cl)c1
Second: CC#CCn1c(Oc2cc(C)cc(C)c2)c(C(C)C)c(=O)[nH]c1=O
The melting point of the first is lower: 110 to 111 °C for the first, 158 to 160 °C for the second.

First: COc1ccc(C(CN(C)C)C2(O)C=CCCC2)cc1 (stereo not drawn)
Second: COc1ccc2c(c1)Sc1cc(N)ccc1N2C
The melting point of the first is lower: 128 to 130 °C for the first, 142 to 143 °C for the second.

First: CC(C)(C)c1cccc(C(=O)Nc2ccccc2C(=O)NCCc2ncc[nH]2)c1
Second: CC(C)(C)C1=CC(=Nc2cccc(C(=O)O)c2)C=C(C(C)(C)C)C1=O
The melting point of the first is lower: 205 to 210 °C for the first, 230 to 231 °C for the second.

First: O=C(Nc1ccnc(Br)c1)C1(O)CCCCC1
Second: CN(C)C(=O)CCC(=O)NC1CCC(CCN2CCN(c3nccc4c3CCO4)CC2)CC1 (stereo not drawn)
The melting point of the first is lower: 179 °C for the first, 188 °C for the second.

First: COc1cc2[nH]c(C)c(CCN3CCN(NC(=O)c4ccccc4)CC3)c2cc1OC
Second: CCN(CC)C(=O)CCc1nc(-c2cccs2)nc2ccccc12
The melting point of the first is higher: 128 to 131 °C for the first, 106 °C for the second.

Compared with Cc1cccc(C)c1NC=O, COC(=O)c1c(C)oc2ccccc2c1=O is lower in melting point: 163 to 164 °C for the first, 116 to 118 °C for the second.

First: Nc1cc(Cl)ccc1C(=O)NCC1CCN(C(c2ccccc2)c2ccccc2)CC1
Second: N#Cc1ccccc1Sc1ccccc1N
The melting point of the first is higher: 161 to 162 °C for the first, 86 to 89 °C for the second.

CN1C(=O)C(N)N=C(c2ccccc2)c2ccncc21 (stereo not drawn) and CC1=Nc2ccccc2CC(c2ccsc2)N1C (stereo not drawn) cannot be ordered by melting point: 94 to 118 °C for the first, 113 to 117 °C for the second.

First: CCOCC1=NC(=Cc2cccs2)C(=O)O1
Second: CCOCc1nc2c(N)nc3ccccc3c2n1CCCCS(=O)(=O)NC(C)C
The melting point of the first is lower: 102 °C for the first, 146 to 147 °C for the second.

First: Cc1c(SCCCCSCCn2c([N+](=O)[O-])cnc2C)ccnc1CO
Second: CC(C)=CCCn1ccnc1[N+](=O)[O-]
The melting point of the first is higher: 86 to 87 °C for the first, 49 to 51 °C for the second.

First: CSc1ccc(CC2C(C)=Cc3cc(F)ccc32)cc1 (stereo not drawn)
Second: Fc1ccc2nc(Cl)ccc2c1
The melting point of the first is lower: 58 to 59 °C for the first, 99 to 101 °C for the second.

First: CC(=O)Oc1c(C)c2c(c(C)c1OC(C)=O)SC(C)O2 (stereo not drawn)
Second: CC(=O)c1ccc2oc3ncccc3c(=O)c2c1
The melting point of the first is lower: 82 to 84 °C for the first, 195 to 196 °C for the second.

First: CCCc1nc2c(N)nc3cccnc3c2n1Cc1cc(-c2ccc(F)cc2)no1
Second: O=C1O[C@@H](Cn2ccnn2)CN1c1ccc(-c2ccc(C3=NOC(CS(=O)(=O)CCO)C3)nc2)c(F)c1 (stereo partly drawn)
The melting point of the first is higher: 238 to 239 °C for the first, 210 °C for the second.

First: CN(C)Cc1cc(OCCCO)cs1
Second: Nc1ccc(CS(=O)(=O)CCO)cc1CS(=O)(=O)CCO
The melting point of the first is lower: 32 to 34 °C for the first, 183 to 185 °C for the second.

Going from CCCCCCCc1cc(O)cc(O)c1C(=O)OCc1ccccc1 to Cc1cc(C)cc(S(=O)(=O)n2c(CCCCC(=O)O)cc3nc(Cl)ccc32)c1, the melting point rises from 104 °C to 160 °C.

First: CC1(c2ccccc2)OC(C=Cc2ccsc2)=CC1=O (stereo not drawn)
Second: Cn1c(C(F)(F)F)cc(=O)n(-c2ccc3snc(C(Br)C#N)c3c2)c1=O (stereo not drawn)
The melting point of the first is lower: 75 to 77 °C for the first, 185 to 187 °C for the second.

Work on O=C(CCCCCCNC(=O)c1ccc(C(F)(C(=O)Nc2cccc3cccnc23)C(=O)Nc2cccc3cccnc23)cc1)NO yielded a melting point of 120 to 122 °C.
